Like-named read-outs stand apart in the source and are kept apart here.
Assays:
NCI-H2228 = assay: AKR1C3-dependent cytotoxicity, NSCLC cell line NCI-H2228; format: cell-based; details: Homo sapiens
Experimental: (§1) The tested compound was then added. The compound was dissolved in 100% DMSO at 200 times of the desired final test concentration. When the medicament was added, the compound was further diluted to 4 times of the desired final test concentration by using the complete medium. 50 μL of aliquots of the compound with specific concentration were added to the microwells containing 150 μL of medium, and then the final medicament concentration was obtained. […] The medicament was then washed. […] After the incubation was finished, the Alamar Blue was used to analyze and quantify the living cells.

NCI-H1944 = assay: AKR1C3-dependent cytotoxicity, NSCLC cell line NCI-H1944; format: cell-based; details: Homo sapiens
Experimental: as §1

CAL12T = assay: AKR1C3-dependent cytotoxicity, NSCLC cell line CAL12T; format: cell-based; details: Homo sapiens, CAL-12T
Experimental: as §1

[1] = test system: HuPrime model LI6664 human liver cancer; assay: In vivo pharmacodynamics, liver cancer LI6664 PDX model; set-up: species or system BALB/c nude mice; details: for Relative tumor volume (x ± S) / Tumor volume (x ± S): mean ± standard error; for Tumor volume (x ± S): in mm³ (unit assumed)
Experimental: Experiment Instruction: BALB/c nude mice were subcutaneously inoculated with HuPrime® model LI6664 tumor blocks to establish a subcutaneous transplantation tumor model of human liver cancer. […] Among them, 7.5% anhydrous ethanol+7.5% polyoxyethylene (35) castor oil+85% glucose injection D5W (pH 7.4) vehicle control group was administered by tail vein once a week for 3 consecutive weeks; test drug AST-3424 0.3 mg/kg and 1 mg/kg groups were administered by tail vein injection once a day for 5 consecutive days, followed by 2 days off, followed by 2 weeks off, and then continuously administered for 5 consecutive days; the test drug AST-3424 1.25 mg/kg group was administered by tail vein injection once a week for 2 consecutive weeks, followed by one week off, and then continuously administered for 2 consecutive weeks, Compound A 0.5 mg/kg, 1.5 mg/kg, and 4.5 mg/kg groups were administered by tail vein injection once a week for three consecutive weeks, followed by 1 week off, and then administered for three consecutive weeks. […] The efficacy was evaluated according to the relative tumor inhibition rate TGI (%), and the safety was evaluated according to the change in body weight and the death of the animals.

NCI-H1792 = assay: AKR1C3-dependent cytotoxicity, NSCLC cell line NCI-H1792; format: cell-based; details: Homo sapiens
Experimental: as §1

P-gp = target: T1, P-gp (Homo sapiens, UniProt P08183); assay: P-gp substrate evaluation, MDCKII-MDR1 penetration test with or without Verapamil; format: in vitro ADME
T1 construct: expressed in transfected cells; host or cells: MDCKII-MDR1 cells
T1 sequence (P08183 whole entry): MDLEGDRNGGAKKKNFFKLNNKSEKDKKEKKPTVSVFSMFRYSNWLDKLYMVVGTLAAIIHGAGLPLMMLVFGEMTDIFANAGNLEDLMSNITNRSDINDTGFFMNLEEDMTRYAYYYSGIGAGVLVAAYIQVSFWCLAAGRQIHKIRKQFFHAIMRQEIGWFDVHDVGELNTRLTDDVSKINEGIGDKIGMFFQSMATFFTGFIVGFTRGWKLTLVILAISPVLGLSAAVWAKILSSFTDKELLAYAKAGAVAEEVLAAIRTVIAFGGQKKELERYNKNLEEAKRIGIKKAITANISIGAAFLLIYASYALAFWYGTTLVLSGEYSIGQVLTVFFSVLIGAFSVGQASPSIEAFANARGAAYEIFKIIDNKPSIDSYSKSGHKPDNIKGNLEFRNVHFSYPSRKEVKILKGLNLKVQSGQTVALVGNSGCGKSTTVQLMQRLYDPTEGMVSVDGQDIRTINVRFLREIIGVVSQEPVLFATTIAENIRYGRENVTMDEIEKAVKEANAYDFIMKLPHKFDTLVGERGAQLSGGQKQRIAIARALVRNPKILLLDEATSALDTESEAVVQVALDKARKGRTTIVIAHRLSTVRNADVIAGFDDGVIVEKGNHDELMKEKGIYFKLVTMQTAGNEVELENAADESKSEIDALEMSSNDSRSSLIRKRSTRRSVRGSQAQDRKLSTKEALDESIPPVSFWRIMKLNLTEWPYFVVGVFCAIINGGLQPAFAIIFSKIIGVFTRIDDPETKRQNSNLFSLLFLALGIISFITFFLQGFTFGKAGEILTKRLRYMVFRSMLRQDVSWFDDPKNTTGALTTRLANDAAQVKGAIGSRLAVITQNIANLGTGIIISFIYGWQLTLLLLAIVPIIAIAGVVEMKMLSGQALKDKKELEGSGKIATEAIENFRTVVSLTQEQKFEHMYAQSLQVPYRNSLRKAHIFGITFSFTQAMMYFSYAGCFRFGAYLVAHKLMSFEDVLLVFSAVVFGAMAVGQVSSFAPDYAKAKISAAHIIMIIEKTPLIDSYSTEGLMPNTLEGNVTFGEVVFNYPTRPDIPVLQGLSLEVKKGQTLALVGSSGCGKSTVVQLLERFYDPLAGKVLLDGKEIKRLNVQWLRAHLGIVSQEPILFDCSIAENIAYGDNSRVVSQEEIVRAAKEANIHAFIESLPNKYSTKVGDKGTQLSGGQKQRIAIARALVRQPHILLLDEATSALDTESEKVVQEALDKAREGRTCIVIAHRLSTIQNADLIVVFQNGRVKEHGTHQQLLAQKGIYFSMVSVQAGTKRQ
Experimental: The conditions of the incubator were set as 37° C., 5% CO2, and 95% of the relative humidity.
After that, the MDCKII-MDR1 cells can be used for the penetration test.
(1) MDCKII-MDR1 transwell culture plate was taken out from the incubator.
(6) The upper and lower transportations were pooled and then incubated at 37° C. for 2 h.
After the sample tubes were vortexed for 10 min, and centrifuged at 3220 g for 30 min. […] Each sample was adopted to the three parallel incubation.
Efflux Ratio was calculated by the following formula: […]
Recovery was calculated by the following formula: […]

NCIH2106 = assay: AKR1C3-dependent cytotoxicity, NSCLC cell line NCIH2106; format: cell-based
Experimental: as §1

SMILES: C[C@@H](OP(=O)(N1CC1)N1CC1)c1ccc([N+](=O)[O-])c(Oc2cccc(C(=O)N(C)C)c2)c1 [AST-3424]
- IC50 (NCI-H2228): 0.21 nM
- IC50 (NCI-H1944): 2.3 nM
- IC50 (CAL12T): 29.1 nM
- relative tumor inhibition rate TGI (%) ([1]; 0.3 mg/kg i.v. QDx5, 2 days off, 2 weeks off, QDx5, Day 28): 45.85%
- relative tumor inhibition rate TGI (%) ([1]; 1 mg/kg i.v. QDx5, 2 days off, 2 weeks off, QDx5, Day 28): 65.05%
- relative tumor inhibition rate TGI (%) ([1]; 1.25 mg/kg i.v. QWx2, 1 week off, QWx2, Day 28): 52.42%
- T/C (%) ([1]; AST-3424 0.3 mg/kg, Day 28): 54.15%
- Relative tumor volume (x ± S) ([1]; AST-3424 0.3 mg/kg, Day 28): 6.99 ± 1.31
- Tumor volume (x ± S) ([1]; AST-3424 0.3 mg/kg, Day 28): 746.71 ± 130.55
- T/C (%) ([1]; AST-3424 1 mg/kg, Day 28): 34.95%
- Relative tumor volume (x ± S) ([1]; AST-3424 1 mg/kg, Day 28): 4.51 ± 1.21
- Tumor volume (x ± S) ([1]; AST-3424 1 mg/kg, Day 28): 463.09 ± 99.32
- T/C (%) ([1]; AST-3424 1.25 mg/kg, Day 28): 47.58%
- Relative tumor volume (x ± S) ([1]; AST-3424 1.25 mg/kg, Day 28): 6.14 ± 0.94
- Tumor volume (x ± S) ([1]; AST-3424 1.25 mg/kg, Day 28): 687.95 ± 147.16
- Size of tumor volume ([1]; Group3, AST-3424 0.3 mg/kg, Day 0): 108.20 mm^3
- Size of tumor volume ([1]; Group3, AST-3424 0.3 mg/kg, Day 4): 162.32 mm^3
- Size of tumor volume ([1]; Group3, AST-3424 0.3 mg/kg, Day 7): 177.51 mm^3
- Size of tumor volume ([1]; Group3, AST-3424 0.3 mg/kg, Day 11): 208.59 mm^3
- Size of tumor volume ([1]; Group3, AST-3424 0.3 mg/kg, Day 14): 306.95 mm^3
- Size of tumor volume ([1]; Group3, AST-3424 0.3 mg/kg, Day 18): 391.40 mm^3
- Size of tumor volume ([1]; Group3, AST-3424 0.3 mg/kg, Day 21): 499.34 mm^3
- Size of tumor volume ([1]; Group3, AST-3424 0.3 mg/kg, Day 25): 631.08 mm^3
- Size of tumor volume ([1]; Group3, AST-3424 0.3 mg/kg, Day 28): 746.71 mm^3
- Size of tumor volume ([1]; Group3, AST-3424 0.3 mg/kg, Day 32): 958.09 mm^3
- Size of tumor volume ([1]; Group3, AST-3424 0.3 mg/kg, Day 35): 1059.71 mm^3
- Size of tumor volume ([1]; Group3, AST-3424 0.3 mg/kg, Day 39): 1226.51 mm^3
- Size of tumor volume ([1]; Group3, AST-3424 0.3 mg/kg, Day 42): 1094.69 mm^3
- Size of tumor volume ([1]; Group3, AST-3424 0.3 mg/kg, Day 46): 1268.82 mm^3
- Size of tumor volume ([1]; Group3, AST-3424 0.3 mg/kg, Day 49): 1486.77 mm^3
- Size of tumor volume ([1]; Group4, AST-3424 1 mg/kg, Day 0): 107.53 mm^3
- Size of tumor volume ([1]; Group4, AST-3424 1 mg/kg, Day 4): 131.59 mm^3
- Size of tumor volume ([1]; Group4, AST-3424 1 mg/kg, Day 7): 145.23 mm^3
- Size of tumor volume ([1]; Group4, AST-3424 1 mg/kg, Day 11): 158.03 mm^3
- Size of tumor volume ([1]; Group4, AST-3424 1 mg/kg, Day 14): 233.54 mm^3
- Size of tumor volume ([1]; Group4, AST-3424 1 mg/kg, Day 18): 291.97 mm^3
- Size of tumor volume ([1]; Group4, AST-3424 1 mg/kg, Day 21): 371.35 mm^3
- Size of tumor volume ([1]; Group4, AST-3424 1 mg/kg, Day 25): 438.00 mm^3
- Size of tumor volume ([1]; Group4, AST-3424 1 mg/kg, Day 28): 463.09 mm^3
- Size of tumor volume ([1]; Group4, AST-3424 1 mg/kg, Day 32): 622.48 mm^3
- Size of tumor volume ([1]; Group4, AST-3424 1 mg/kg, Day 35): 748.13 mm^3
- Size of tumor volume ([1]; Group4, AST-3424 1 mg/kg, Day 39): 929.60 mm^3
- Size of tumor volume ([1]; Group4, AST-3424 1 mg/kg, Day 42): 1226.79 mm^3
- Size of tumor volume ([1]; Group4, AST-3424 1 mg/kg, Day 46): 1496.83 mm^3
- Size of tumor volume ([1]; Group4, AST-3424 1 mg/kg, Day 49): 1717.60 mm^3
- Size of tumor volume ([1]; Group5, AST-3424 1.25 mg/kg, Day 0): 108.46 mm^3
- Size of tumor volume ([1]; Group5, AST-3424 1.25 mg/kg, Day 4): 174.65 mm^3
- Size of tumor volume ([1]; Group5, AST-3424 1.25 mg/kg, Day 7): 210.25 mm^3
- Size of tumor volume ([1]; Group5, AST-3424 1.25 mg/kg, Day 11): 222.97 mm^3
- Size of tumor volume ([1]; Group5, AST-3424 1.25 mg/kg, Day 14): 291.02 mm^3
- Size of tumor volume ([1]; Group5, AST-3424 1.25 mg/kg, Day 18): 361.03 mm^3
- Size of tumor volume ([1]; Group5, AST-3424 1.25 mg/kg, Day 21): 467.94 mm^3
- Size of tumor volume ([1]; Group5, AST-3424 1.25 mg/kg, Day 25): 581.63 mm^3
- Size of tumor volume ([1]; Group5, AST-3424 1.25 mg/kg, Day 28): 687.95 mm^3
- Size of tumor volume ([1]; Group5, AST-3424 1.25 mg/kg, Day 32): 746.71 mm^3
- Size of tumor volume ([1]; Group5, AST-3424 1.25 mg/kg, Day 35): 871.84 mm^3
- Size of tumor volume ([1]; Group5, AST-3424 1.25 mg/kg, Day 39): 1081.64 mm^3
- Size of tumor volume ([1]; Group5, AST-3424 1.25 mg/kg, Day 42): 1307.36 mm^3
- Size of tumor volume ([1]; Group5, AST-3424 1.25 mg/kg, Day 46): 1675.14 mm^3
- Size of tumor volume ([1]; Group5, AST-3424 1.25 mg/kg, Day 49): 1923.31 mm^3
- weight loss ([1]; mouse, in vivo): no weight loss
- IC50 (NCI-H1792): 4.5 nM
- P-gp substrate (P-gp; MDCKII-MDR1, with and without Verapamil): Pgp substrate
- Papp A→B at 2 h (P-gp; dog, MDCK-MDR1): 1.95 ×10⁻⁶ cm/s
- Papp B→A at 2 h (P-gp; dog, MDCK-MDR1): 34.5 ×10⁻⁶ cm/s
- recovery at 2 h (P-gp; dog, MDCK-MDR1, Verapamil 0 μM, read-out: Recovery (%) AP-BL): 79.1%
- recovery at 2 h (P-gp; dog, MDCK-MDR1, Verapamil 0 μM, read-out: Recovery (%) BL-AP): 90.6%
- recovery at 2 h (P-gp; dog, MDCK-MDR1, with Verapamil 100 μM, Verapamil 100 μM, read-out: Recovery (%) AP-BL): 92.6%
- recovery at 2 h (P-gp; dog, MDCK-MDR1, with Verapamil 100 μM, Verapamil 100 μM, read-out: Recovery (%) BL-AP): 96.3%
- IC50 (NCIH2106): > 1000 nM

From patent US20260159536A1, “AKR1C3-ACTIVATED DNA ALKYLATING AGENT, AND MEDICAL APPLICATION THEREOF” (ASCENTAWITS PHARMACEUTICALS, LTD., priority 2021, published 2026)
